From ChEMBL document CHEMBL2331442, “Synthesis and structure-activity relationships of N-methyl-5,6,7-trimethoxylindoles as novel antimitotic and vascular disrupting agents” (J Med Chem, 2013)
Calls of active or inactive are those of the source. No cut-off for these calls is given here.

Experiments:
HepG2 = assay: Cytotoxicity against human HepG2 cells after 72 hrs by CCK-8 assay; format: functional, cell-based; details: HepG2, 72 h
HUVEC [1] = assay: Antiangiogenic activity in activated HUVECs assessed as inhibition of capillary tube formation at 0.1 uM after 22 hrs by light microscopic analysis; format: functional, cell-based; details: Homo sapiens
HT-1080 = assay: Cytotoxicity against human HT1080 cells after 72 hrs by CCK-8 assay; format: functional, cell-based; details: HT-1080, 72 h
HUVEC [2] = assay: Antiproliferative activity against activated HUVECs after 48 hrs by CCK-8 assay; format: functional, cell-based; details: Homo sapiens
HUVEC [3] = assay: Antiangiogenic activity in quesicent HUVECs assessed as disruption of preformed capillaries at 0.1 uM after 4 hrs by light microscopic analysis (reference value: 11%); format: cell-based; details: human
HUVEC [4] = assay: Antiproliferative activity against quesicent HUVECs after 48 hrs by CCK-8 assay; format: cell-based; details: Homo sapiens
HeLa = assay: Cytotoxicity against human HeLa cells after 72 hrs by CCK-8 assay; format: functional, cell-based
A549 [5] = assay: Cytotoxicity against human A549 cells after 72 hrs by CCK-8 assay; format: functional, cell-based; details: A549, 72 h
HUVEC [6] = assay: Selectivity ratio of IC50 for quesicent HUVECs to IC50 for activated HUVECs; format: functional, Homo sapiens
A549 [7] = assay: Cell cycle arrest in human A549 cells assessed as accumulation at S phase at 0.1 uM after 24 hrs by propidium iodide staining-based FACS flow cytometric analysis (reference value: 32.56%); format: functional
A549 [8] = assay: Antimitotic activity in human A549 cells assessed as disruption of microtubule organization at 0.1 uM after 16 hrs by DAPI staining-based Zeiss microscopic analysis relative to control; format: functional, cell-based
Tubulin (Homo sapiens) = Tubulin (Homo sapiens) (UniProt P68371+Q9H4B7+P0DPH7+P68366+Q13509+Q71U36+P04350+Q3ZCM7+P07437+P68363+Q9BQE3+Q6PEY2+Q13885+Q9BVA1+Q9BUF5); assay: Inhibition of tubulin polymerization in human A549 cells at 0.1 uM after 6 hrs by Western blotting analysis; format: cell-based
A549 [9] = assay: Cell cycle arrest in human A549 cells assessed as accumulation at G2/M phase at 0.1 uM after 24 hrs by propidium iodide staining-based FACS flow cytometric analysis (reference value: 8.52%); format: functional
HUVEC [10] = assay: Antiangiogenic activity in quesicent HUVECs assessed as disruption of preformed capillaries at 1 uM after 4 hrs by light microscopic analysis relative to control; format: cell-based; details: human
A549 [11] = assay: Cell cycle arrest in human A549 cells assessed as accumulation at G1 phase at 0.1 uM after 24 hrs by propidium iodide staining-based FACS flow cytometric analysis (reference value: 53.57%); format: functional
A549 [12] = assay: Antimitotic activity in human A549 cells assessed as disruption of microtubule organization at 0.05 uM after 16 hrs by DAPI staining-based Zeiss microscopic analysis relative to control; format: functional, cell-based
A549 [13] = assay: Antiangiogenic activity in human A549 cells xenografted in BALB/c nu/nu mouse assessed as disruption of tumor vasculature at 100 mg/kg, ip after 16 hrs by Hoechst 33342 staining-based Zeiss microscopic analysis relative to control; format: functional; details: route intraperitoneal
A549 [14] = assay: Antimitotic activity in human A549 cells assessed as disruption of microtubule organization at 0.01 uM after 16 hrs by DAPI staining-based Zeiss microscopic analysis relative to control; format: functional, cell-based

In the case of `COc1cc2c(c(OC)c1OC)-c1ccc(OC)c(=O)cc1[C@@H](NC(C)=O)CC2` [COLCHICINE], the IC50 (HepG2) is reported as 46.7 nM, the inhibition (HUVEC [1]) is reported as “Active” and the IC50 (HT-1080) is reported as 15.4 nM. It also gave an IC50 (HUVEC [2]) of 8.91 nM, an Activity (HUVEC [3]) of 56% and an IC50 (HUVEC [4]) of 7.6 nM. The IC50 (HeLa) was 37.4 nM.
In the case of `COc1ccccc1C(=O)c1c[nH]c2c(OC)c(OC)c(OC)cc12`, the IC50 (A549 [5]) is reported as > 10000 nM.
In the case of `COc1ccc(C(=O)n2ccc3cc(OC)c(OC)c(OC)c32)cc1O`, the IC50 (A549 [5]) is reported as > 10000 nM.
In the case of `COc1ccc(C(=O)c2cn(C)c3c(OC)c(OC)c(OC)cc23)cc1`, the IC50 (A549 [5]) is reported as 482 nM.
In the case of `COc1ccc(C(=O)c2c[nH]c3c(OC)c(OC)c(OC)cc23)cc1O`, the IC50 (A549 [5]) is reported as 166 nM, the IC50 (HUVEC [2]) is reported as 327 nM and the “Ratio IC50” value (HUVEC [6]) is reported as 9.1. The IC50 (HUVEC [4]; read-out: IC50) was 2980 nM.
Molecule `COc1ccc(C(=O)c2cn(C(C)=O)c3c(OC)c(OC)c(OC)cc23)cc1` has an IC50 (A549 [5]) of 5270 nM.
In the case of `COc1ccc(C(=O)c2cn(C)c3c(OC)c(OC)c(OC)cc23)cc1F`, the IC50 (A549 [5]) is reported as 146 nM, the IC50 (HUVEC [2]) is reported as 96.4 nM and the “Ratio IC50” value (HUVEC [6]) is reported as 1.56. The IC50 (HUVEC [4]; read-out: IC50) was 151 nM.
With `COc1ccc(Cc2c[nH]c3c(OC)c(OC)c(OC)cc23)cc1` the IC50 (A549 [5]) was 2990 nM.
In the case of `COc1ccc(C(=O)c2c[nH]c3c(OC)c(OC)c(OC)cc23)cc1I`, the IC50 (A549 [5]) is reported as > 10000 nM.
For `COc1ccc(C(=O)c2c[nH]c3c(OC)c(OC)c(OC)cc23)cc1F`, the IC50 (A549 [5]) was > 10000 nM.
With `COc1ccc(Cc2c[nH]c3c(OC)c(OC)c(OC)cc23)cc1O` the IC50 (HepG2) was 72.2 nM, the IC50 (A549 [5]) was 118 nM and the IC50 (HT-1080) was 118 nM. For the same molecule, the IC50 (HUVEC [2]) was 228 nM, the “Ratio IC50” value (HUVEC [6]) was 10.8 and the IC50 (HUVEC [4]; read-out: IC50) was 2450 nM. For the same molecule, the IC50 (HeLa) was 149 nM.
In the case of `COc1cc(Cc2c[nH]c3c(OC)c(OC)c(OC)cc23)cc(OC)c1OC`, the IC50 (A549 [5]) is reported as > 10000 nM.
For `COc1ccc(Cc2c[nH]c3c(OC)c(OC)c(OC)cc23)cc1F`, the IC50 (A549 [5]) was 387 nM.
With `COc1ccc(C(=O)n2ccc3cc(OC)c(OC)c(OC)c32)cc1` the IC50 (A549 [5]) was > 10000 nM.
For `COc1cc2c(C(=O)c3ccc(C)cc3)c[nH]c2c(OC)c1OC`, the IC50 (A549 [5]) was > 10000 nM.
`COc1ccc(Cn2ccc3cc(OC)c(OC)c(OC)c32)cc1O` was tested, and the IC50 (A549 [5]) was 3190 nM.
With `COc1ccc(Cc2cn(C)c3c(OC)c(OC)c(OC)cc23)cc1F` the IC50 (A549 [5]) was 144 nM.
`COc1cccc(C(=O)c2c[nH]c3c(OC)c(OC)c(OC)cc23)c1` was tested, and the IC50 (A549 [5]) was > 10000 nM.
For `COc1ccc(C(=O)c2cn(S(=O)(=O)c3ccccc3)c3c(OC)c(OC)c(OC)cc23)cc1`, the IC50 (A549 [5]) was > 10000 nM.
In the case of `COc1ccc(Cc2cn(C)c3c(OC)c(OC)c(OC)cc23)cc1O`, the IC50 (HepG2) is reported as 45.5 nM, the IC50 (A549 [5]) is reported as 71.7 nM and the inhibition (HUVEC [1]) is reported as “Active”. For the same molecule, the Activity (A549 [7]) was 14.7%, the Activity (A549 [8]) was “Active” and the IC50 (HT-1080) was 42.2 nM. For the same molecule, the inhibition (Tubulin (Homo sapiens)) was 31%, the IC50 (HUVEC [2]) was 8.9 nM and the Activity (HUVEC [3]) was 10%. The IC50 (HUVEC [4]; read-out: IC50) was 6300 nM, the Activity (A549 [9]) was 80.48% and the Activity (HUVEC [10]) was 51%. It also gave an IC50 (HeLa) of 40.7 nM and an Activity (A549 [11]) of 3.9%.
In the case of `COc1ccc(C(=O)c2c(C)[nH]c3c(OC)c(OC)c(OC)cc23)cc1O`, the IC50 (A549 [5]) is reported as 2620 nM.
In the case of `COc1ccc(Cn2ccc3cc(OC)c(OC)c(OC)c32)cc1`, the IC50 (A549 [5]) is reported as 3090 nM.
`COc1ccc(C(=O)c2cn(C)c3c(OC)c(OC)c(OC)cc23)cc1O` was tested, and the Activity (A549 [12]) was “Active”, the IC50 (HepG2) was 44.5 nM and the IC50 (A549 [5]) was 28.3 nM. For the same molecule, the inhibition (HUVEC [1]) was “Active”, the Activity (A549 [7]) was 14.34% and the Activity (A549 [13]) was 68%. For the same molecule, the IC50 (HT-1080) was 26.3 nM, the inhibition (Tubulin (Homo sapiens)) was 27% and the IC50 (HUVEC [2]) was 25.3 nM. For the same molecule, the Activity (HUVEC [3]) was 13%, the “Ratio IC50” value (HUVEC [6]) was 207 and the IC50 (HUVEC [4]; read-out: IC50) was 5240 nM. The Activity (A549 [9]) was 78.85%, the Activity (HUVEC [10]) was 49% and the IC50 (HeLa) was 125 nM. For the same molecule, the Activity (A549 [11]) was 5.07%.
`COc1ccc(C(=O)c2c[nH]c3c(OC)c(OC)c(OC)cc23)cc1` gave an IC50 (A549 [5]) of 8290 nM.
With `COc1cc(C(=O)c2c[nH]c3c(OC)c(OC)c(OC)cc23)cc(OC)c1OC` the IC50 (A549 [5]) was > 10000 nM.
`COc1ccc(/C=C\c2cc(OC)c(OC)c(OC)c2)cc1O` [COMBRETASTATIN A4] was tested, and the IC50 (A549 [5]) was 3.64 nM, the Activity (A549 [13]) was 72% and the Activity (A549 [14]) was “Active”. For the same molecule, the IC50 (HUVEC [2]) was 3.34 nM, the “Ratio IC50” value (HUVEC [6]) was 2.66 and the IC50 (HUVEC [4]; read-out: IC50) was 8.9 nM.
`COc1ccc(C(=O)c2c(C)n(C)c3c(OC)c(OC)c(OC)cc23)cc1O` showed an IC50 (HepG2) of 91.6 nM, an IC50 (A549 [5]) of 108 nM and an IC50 (HT-1080) of 574 nM. For the same molecule, the IC50 (HUVEC [2]) was 43.7 nM, the “Ratio IC50” value (HUVEC [6]) was 3.68 and the IC50 (HUVEC [4]; read-out: IC50) was 161 nM. The IC50 (HeLa) was 632 nM.
In the case of `COc1ccc(C(=O)c2c[nH]c3c(OC)c(OC)c(OC)cc23)cc1Cl`, the IC50 (A549 [5]) is reported as > 10000 nM.
